Experiments:
Rabbit CYP2E1 [1] = molecular target: T1, Rabbit CYP2E1 (Oryctolagus cuniculus, UniProt P08682); assay: Inhibition of 4-nitrophenol oxidation to 4-nitrocatechol by reconstituted CYP2E1; conditions: for fold more potent than pyrazole: inhibition of CYP2E1 4-nitrophenol metabolism; for Inhibition Mechanism: most probable mechanism by DynaFit model discrimination, substrate 4-nitrophenol; for kcat2: turnover of the ESI complex, 95% confidence intervals in parentheses
Rabbit CYP2E1 [2] = molecular target: T1, Rabbit CYP2E1; assay: Spectral binding studies; conditions: for fold increase in affinity (Kd) relative to pyrazole: catalytic site
CYP2E1 [3] = molecular target: CYP2E1 (Oryctolagus cuniculus, UniProt P08682); assay: Spectral binding studies; set-up: species or system rabbit; conditions: rabbit, pH 7.4
CYP2E1 [4] = conditions: positive cooperativity; ref [4], [6]; cited from earlier work

T1 sequence (P08682 whole entry): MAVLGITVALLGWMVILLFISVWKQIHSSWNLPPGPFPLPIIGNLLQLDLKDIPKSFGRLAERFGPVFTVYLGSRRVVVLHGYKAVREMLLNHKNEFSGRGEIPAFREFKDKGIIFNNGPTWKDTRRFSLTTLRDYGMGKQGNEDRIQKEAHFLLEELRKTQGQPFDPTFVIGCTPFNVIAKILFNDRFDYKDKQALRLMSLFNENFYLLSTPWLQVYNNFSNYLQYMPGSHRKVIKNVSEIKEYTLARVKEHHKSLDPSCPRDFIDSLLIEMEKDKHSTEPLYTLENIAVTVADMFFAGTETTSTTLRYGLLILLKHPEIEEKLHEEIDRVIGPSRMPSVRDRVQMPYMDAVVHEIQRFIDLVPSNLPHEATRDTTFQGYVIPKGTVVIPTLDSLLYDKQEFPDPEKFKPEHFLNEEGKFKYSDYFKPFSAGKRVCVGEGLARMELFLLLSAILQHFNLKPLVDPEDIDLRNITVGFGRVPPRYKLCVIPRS
Chain of CYP2E1 (Oryctolagus cuniculus, UniProt P08682) (P08682 whole entry): as above

Structure (SMILES)	Inhibition Mechanism (Rabbit CYP2E1 [1])	kcat2 (Rabbit CYP2E1 [1])	Kd (Rabbit CYP2E1 [2]) [µM]	also measured
c1n[nH]c2c1CCCC2	Mixed, coop. substrate	6.6 (2.3 to 9.6) min^−1		fold more potent than pyrazole (Rabbit CYP2E1 [1]): 100 fold; fold increase in affinity (Kd) relative to pyrazole (Rabbit CYP2E1 [2]; spectral binding): 800 fold
Cc1cc(C)[nH]n1 [3,5-dimethylpyrazole]				inhibition of the 4-nitrophenol reaction (Rabbit CYP2E1 [1]; concentration as high as 250 µM (data not shown)): no inhibition; spectral shift upon binding (Rabbit CYP2E1 [2]; concentrations as high as 1000 µM): did not induce a spectral
Cc1cc[nH]n1 [3-methylpyrazole]	Mixed, coop. substrate	8.7 (7.0 to 10) min^−1	11	fold higher affinity for the free enzyme than the ES complex (Rabbit CYP2E1 [1]): two-fold; fold increase in affinity (Kd) relative to pyrazole (Rabbit CYP2E1 [2]; spectral binding): 2 fold; Kd (CYP2E1 [3]): 1700 µM
c1ccc(-c2cc[nH]n2)cc1 [3-phenylpyrazole]	Competitive		22	
CCOc1ccc2ccc(=O)oc2c1 [7-ethoxycoumarin]				Hill coefficient (CYP2E1 [4]): 1.6
c1ccc2[nH]cnc2c1 [benzimidazole]			550	
c1ccc2[nH]ncc2c1 [indazole]	Mixed, coop. substrate	11 (9.0 to 13) min^−1		fold more potent than pyrazole (Rabbit CYP2E1 [1]): more than 200 fold; fold increase in affinity relative to tetrahydroindazole (Rabbit CYP2E1 [2]; spectral binding, aromatization of the second ring): about five-fold
Cc1cccc(C)c1 [m-xylene]				Hill coefficient (CYP2E1 [4]): 1.4
c1cn[nH]c1 [pyrazole]	Mixed, coop. substrate			

Source: article PMC3781954 (Archives of biochemistry and biophysics, 2013)
